Test results published in US20130122024A1, “NEW BINDER-DRUG CONJUGATES (ADCS) AND USE THEREOF” (Bayer Intellectual Property GmbH, priority 2011, published 2013).
“Also recorded” adds a separate entry of the source. Counter-ions that a name gives are not always drawn. Square brackets hold non-standard residues; d marks the D form. Peptide text beside a SMILES is read from it. * marks the point of attachment. X1 = CC(C)[C@@H](C(=O)*)N(C)CCCCCC(=O)NCCCC[C@H](N)C(=O)O; Dolaproine = CO[C@@H]([C@@H]1CCCN1)[C@@H](C)C(=O)O; Dil = CC[C@H](C)[C@H](NC)[C@@H](CC(=O)O)OC; X5 = C[C@@H](N*)[C@@H](O)c1ccccc1; Oxazinan2yl(1,2) = C1CCN(*)OC1; NMeV = CN[C@H](C(=O)O)C(C)C

B1: Example 71 immunoconjugate (MF-Ta ADC) (antibody, human IgG1, lambda, V domains shown)
VH: QVELVQSGAEVKKPGESLKISCKGSGYSFTSYWIGWVRQAPGKGLEWMGIIDPGDSRTRYSPSFQGQVTISADKSISTAYLQWSSLKASDTAMYYCARGQLYGGTYMDGWGQGTLVTVSS
VL: DIALTQPASVSGSPGQSITISCTGTSSDIGGYNSVSWYQQHPGKAPKLMIYGVNNRPSGVSNRFSGSKSGNTASLTISGLQAEDEADYYCSSYDIESATPVFGGGTKLTVLG
modifications: auristatin linker-toxophore on cysteine sulphur

Legend:
[1] = test system: Caco-2 cells; experiment: Caco-2 flux assay for cell permeability; assay type: in vitro ADME; conditions: 2 hours, B to A
Procedure: (§1) The cell permeability of a substance can be investigated by means of in vitro testing in a flux assay using Caco-2 cells [M. D. Troutman and D. R. Thakker, Pharm. Res. 20 (8), 1210-1224 (2003)]. For this purpose, the cells were cultured for 15-16 days on 24-well filter plates. For the determination of permeation, the respective working example was applied in a HEPES buffer to the cells either apically (A) or basally (B) and incubated for 2 hours. After 0 hours and after 2 hours, samples were taken from the cis and trans compartments. The samples were separated by HPLC (Agilent 1200, Böblingen, Germany) using reverse phase columns. The HPLC system was coupled via a Turbo Ion Spray Interface to a Triple Quadropol mass spectrometer API 4000 (Applied Biosystems Applera, Darmstadt, Germany). The permeability was evaluated on the basis of a Papp value, which was calculated using the formula published by Schwab et al. [D. Schwab et al., J. Med. Chem. 46, 1716-1725 (2003)].

[2] = test system: tubulin; experiment: Fluorescence-based microtubule (tubulin) polymerization assay; assay type: biochemical
Procedure: Tubulin polymerization was investigated using the “Fluorescence-based Microtubule Polymerisation Assay Kit” from Cytoskeleton (Denver, Colo., USA; order number: BK011). With this assay, GTP is added to unpolymerized tubulin, allowing polymerization to take place spontaneously. The assay is based on the binding of the fluorophore 4′,6-di-amidino-2-phenylindole (DAPI) to tubulin. Free and bound DAPI can be differentiated on the basis of different emission spectra.
[…] In addition to the buffer control, paclitaxel, with a polymerization-increasing effect, and vinblastin, with a polymerization inhibiting effect, were run additionally as assay controls. Measurement was carried out using 96-well plates with a half base area. The kinetics of the tubulin polymerization were monitored in a Fluorimeter at 37° C. for 1 hour. The excitation wavelength was 355 nm, and emission was monitored at 460 nm. For the region of linear increase within the first 10 minutes, a calculation was made of the change in fluorescence per minute (ΔF/min), which represents the polymerization rate of the microtubuli. The potency of the test substances was quantified on the basis of their respective reduction of the polymerization rate.
The reduction in the tubulin polymerization rate occurs in dependence on the concentration of the test substance added.

[3] = Caco-2 flux assay for cell permeability; assay type: in vitro ADME; conditions: human, Caco-2 cells, B to A
Procedure: as §1

[4] = biological target: Mesothelin (Homo sapiens, UniProt Q13421-3 37-598, GPI anchor); experiment: cell-based or functional assay
[5] = concentration of toxophore 10 μM
[6] = concentration of toxophore 1 μM

Molecule | Papp (B-A) [1] | Tubulin polymerization in the presence of toxophore in [%]. Tubulin polymerization rate at 1 μM MMAF set at 100% [2, 5] | Tubulin polymerization in the presence of toxophore in [%]. Tubulin polymerization rate at 1 μM MMAF set at 100% [2, 6] | other results
CC[C@H](C)[C@@H]([C@@H](CC(=O)N1CCC[C@H]1[C@H](OC)[C@@H](C)C(=O)N[C@@H](Cc1c[nH]c2ccccc12)C(=O)NCc1ccccc1)OC)N(C)C(=O)[C@@H](NC(=O)[C@H](C(C)C)N(C)CCCC(=O)NNC(=O)CCCCCN1C(=O)CC(SC[C@H](N)C(=O)O)C1=O)C(C)C (stereo partly drawn) [Example 68, N-(4-{2-[6-(3-{[(2R)-2-Amino-2-carboxyethyl]sulphanyl}-2,5-dioxopyrrolidin-1-yl)hexanoyl]hydrazino}-4-oxobutyl)-N-methyl-L-valyl-N-[(3R,4S,5S)-1-{(2S)-2-[(1R,2R)-3-{[(2S)-1-(benzylamino)-3-(1H-indol-3-yl)-1-oxopropan-2-yl]amino}-1-methoxy-2-methyl-3-oxopropyl]pyrrolidin-1-yl}-3-methoxy-5-methyl-1-oxoheptan-4-yl]-N-methyl-L-valinamide] | 7 nm/s | 45% | – | –
CC[C@H](C)[C@@H]([C@@H](CC(=O)N1CCC[C@H]1[C@H](OC)[C@@H](C)C(=O)N[C@@H](Cc1c[nH]c2ccccc12)C(=O)N1CCCCO1)OC)N(C)C(=O)[C@@H](NC(=O)[C@H](C(C)C)N(C)CCCCCC(=O)NCCCC[C@H](N)C(=O)O)C(C)C [Example 105, N-(6-{[(5S)-5-Amino-5-carboxypentyl]amino}-6-oxohexyl)-N-methyl-L-valyl-N-[(3R,4S,5S)-1-{(2S)-2-[(1R,2R)-3-{[(2S)-3-(1H-indol-3-yl)-1-(1,2-oxazinan-2-yl)-1-oxopropan-2-yl]amino}-1-methoxy-2-methyl-3-oxopropyl]pyrrolidin-1-yl}-3-methoxy-5-methyl-1-oxoheptan-4-yl]-N-methyl-L-valinamide trifluoroacetate] (X1-V[Dil][Dolaproine]W-{Oxazinan2yl(1,2)}) | 2 nm/s | 1% | 45% | –
CC[C@H](C)[C@@H]([C@@H](CC(=O)N1CCC[C@H]1[C@H](OC)[C@@H](C)C(=O)N[C@@H](Cc1c[nH]c2ccccc12)C(=O)O)OC)N(C)C(=O)[C@@H](NC(=O)[C@H](C(C)C)N(C)CCCCCC(=O)NCCCC[C@H](N)C(=O)O)C(C)C [Example 106, N-(6-{[(5S)-5-Amino-5-carboxypentyl]amino}-6-oxohexyl)-N-methyl-L-valyl-N-[(3R,4S,5S)-1-{(2S)-2-[(1R,2R)-3-{[(1S)-1-carboxy-2-(1H-indol-3-yl)ethyl]amino}-1-methoxy-2-methyl-3-oxopropyl]pyrrolidin-1-yl}-3-methoxy-5-methyl-1-oxoheptan-4-yl]-N-methyl-L-valinamide] (X1-V[Dil][Dolaproine]W-OH) | 1 nm/s | 14% | 80% | –
CC[C@H](C)[C@@H]([C@@H](CC(=O)N1CCC[C@H]1[C@H](OC)[C@@H](C)C(=O)N[C@@H](Cc1ccc(O)cc1)C(=O)N1CCCCO1)OC)N(C)C(=O)[C@@H](NC(=O)[C@H](C(C)C)N(C)CCCCCC(=O)NCCCC[C@H](N)C(=O)O)C(C)C [Example 117, N-(6-{[(5S)-5-Amino-5-carboxypentyl]amino}-6-oxohexyl)-N-methyl-L-valyl-N-[(3R,4S,5S)-1-{(2S)-2-[(1R,2R)-3-{[(2S)-3-(4-hydroxyphenyl)-1-(1,2-oxazinan-2-yl)-1-oxopropan-2-yl]amino}-1-methoxy-2-methyl-3-oxopropyl]pyrrolidin-1-yl}-3-methoxy-5-methyl-1-oxoheptan-4-yl]-N-methyl-L-valinamide trifluoroacetate] (X1-V[Dil][Dolaproine]Y-{Oxazinan2yl(1,2)}) | 1.5 nm/s | 21% | 88% | –
CC[C@H](C)[C@@H]([C@@H](CC(=O)N1CCC[C@H]1[C@H](OC)[C@@H](C)C(=O)N[C@H](C)[C@@H](O)c1ccccc1)OC)N(C)C(=O)[C@@H](NC(=O)[C@@H](NC)C(C)C)C(C)C [MMAE, monomethylauristatin E, reference compound] (H-[NMeV]V[Dil][Dolaproine]-X5) | – | – | – | Papp B→A at 2 h [3]: 7.3 ×10⁻⁶ cm/s
CC[C@H](C)[C@@H]([C@@H](CC(=O)N1CCC[C@H]1[C@H](OC)[C@@H](C)C(=O)N[C@@H](Cc1ccccc1)C(=O)O)OC)N(C)C(=O)[C@@H](NC(=O)[C@@H](NC)C(C)C)C(C)C [MMAF, Monomethylauristatin F, reference compound] (H-[NMeV]V[Dil][Dolaproine]F-OH) | 73 nm/s | 34% | 100% | reduction in the polymerization rate ([2]; 1 μM): 40-45%; effect on tubulin polymerization ([2]; 100 μM): complete cessation of polymerization; also recorded: inhibited completely; Tubulin polymerization in the presence of toxophore in [%]. Tubulin polymerization rate at 1 μM MMAF set at 100% ([2]; concentration of toxophore 100 μM): 0%
B1 | – | – | – | HT29 meso+ IC50 [nM] (MTT proliferation) [4]: 22 nM
